Laboratory results as given in ChEMBL document CHEMBL5678816, “A Next-Generation TRK Kinase Inhibitor Overcomes Acquired Resistance to Prior TRK Kinase Inhibition in Patients with TRK Fusion-Positive Solid Tumors” (Cancer Discov, 2017).
Activity calls are given as the source filed them. The calls are words filed in the database; no cut-off is given here.

Legend:
[1] = Cmin in adult patient with recurrent LMNA-NTRK1 rearranged colorectal cancer at 50 mg administered twice a day as powder-in-capsule or liquid formulation for 1 day and measured 10 hrs post dose by LC-MS/MS analysis; format: ADME; conditions: human, in vivo, po, read-out: Cmin
[2] = target: Receptor-interacting serine/threonine-protein kinase 2 (Homo sapiens) (UniProt O43353); assay: Inhibition of RIPK2 (unknown origin) at 1 uM in presence of ATP relative to control; values are per cent of control
CGTH-W-1 = assay: Inhibition of cell proliferation in human CGTH-W-1 cells upto 10 umol/L incubated for 72 hrs by DAPI staining based analysis; format: functional; conditions: dose <= 10.0 µmol/L
[3] = target: Mitogen-activated protein kinase 9 (Homo sapiens) (UniProt P45984); assay: Inhibition of JNK2alpha2 (unknown origin) at 1 uM in presence of ATP relative to control; values are per cent of control
[4] = target: Maternal embryonic leucine zipper kinase (Homo sapiens) (UniProt Q14680); assay: Inhibition of MELK (unknown origin) at 1 uM in presence of ATP relative to control; values are per cent of control
[5] = target: Serine/threonine-protein kinase MARK2 (Homo sapiens) (UniProt Q7KZI7); assay: Inhibition of MARK2 (unknown origin) at 1 uM in presence of ATP relative to control; values are per cent of control
[6] = target: Testis-specific serine/threonine-protein kinase 2 (Homo sapiens) (UniProt Q96PF2); assay: Inhibition of TSSK2 (unknown origin) at 1 uM in presence of ATP relative to control; values are per cent of control
[7] = target: MAP kinase-activated protein kinase 2 (Homo sapiens) (UniProt P49137); assay: Inhibition of MAPKAP-K2 (unknown origin) at 1 uM in presence of ATP relative to control; values are per cent of control
COR-L105 = assay: Inhibition of cell proliferation in human COR-L105 cells upto 10 umol/L incubated for 72 hrs by DAPI staining based analysis; format: functional; conditions: dose <= 10.0 µmol/L
[8] = target: Receptor tyrosine-protein kinase erbB-4 (Homo sapiens) (UniProt Q15303); assay: Inhibition of ErbB4 (unknown origin) at 1 uM in presence of ATP relative to control; values are per cent of control
[9] = target: Fibroblast growth factor receptor 4 (Homo sapiens) (UniProt P22455); assay: Inhibition of FGFR4 (unknown origin) at 1 uM in presence of ATP relative to control; values are per cent of control
[10] = target: Dual specificity protein kinase CLK3 (Homo sapiens) (UniProt P49761); assay: Inhibition of CLK3 (unknown origin) at 1 uM in presence of ATP relative to control; values are per cent of control
BXPC-3 = assay: Inhibition of cell proliferation in human BXPC-3 cells upto 10 umol/L incubated for 72 hrs by DAPI staining based analysis; format: functional; conditions: dose <= 10.0 µmol/L
TCC-SUP = assay: Inhibition of cell proliferation in human TCC-SUP cells upto 10 umol/L incubated for 72 hrs by DAPI staining based analysis; format: functional; conditions: dose <= 10.0 µmol/L
[11] = target: Fibroblast growth factor receptor 1 (Homo sapiens) (UniProt P11362); assay: Inhibition of FGFR1 (unknown origin) at 1 uM in presence of ATP relative to control; values are per cent of control
NCI-H441 = assay: Inhibition of cell proliferation in human NCI-H441 cells upto 10 umol/L incubated for 72 hrs by DAPI staining based analysis; format: functional; conditions: dose <= 10.0 µmol/L
MV4-11 = assay: Inhibition of cell proliferation in human MV4-11 cells upto 10 umol/L incubated for 72 hrs by DAPI staining based analysis; format: functional; conditions: dose <= 10.0 µmol/L
[12] = Oral bioavailability in dog at 10 mg/kg administered as 0.5% carboxymethylcellulose 0.02% sodium dodecyl sulfate formulation by LC-MS analysis; format: ADME, organism-based, Canis lupus familiaris; conditions: in vivo
[13] = target: Serine/threonine-protein kinase WNK3 (Homo sapiens) (UniProt Q9BYP7); assay: Inhibition of WNK3 (unknown origin) at 1 uM in presence of ATP relative to control; values are per cent of control
[14] = target: Serine/threonine-protein kinase pim-1 (Homo sapiens) (UniProt P11309); assay: Inhibition of Pim-1 (unknown origin) at 1 uM in presence of ATP relative to control; values are per cent of control
[15] = target: Serine/threonine-protein kinase Chk1 (Homo sapiens) (UniProt O14757); assay: Inhibition of CHK1 (unknown origin) at 1 uM in presence of ATP relative to control; values are per cent of control
TF-1 = assay: Inhibition of cell proliferation in human TF-1 cells upto 10 umol/L incubated for 72 hrs by DAPI staining based analysis; format: functional; conditions: dose <= 10.0 µmol/L
DBTRG-05MG = assay: Inhibition of cell proliferation in human DBTRG-05MG cells upto 10 umol/L incubated for 72 hrs by DAPI staining based analysis; format: functional; conditions: dose <= 10.0 µmol/L
[16] = target: Protein kinase C iota type (Homo sapiens) (UniProt P41743); assay: Inhibition of PKCiota (unknown origin) at 1 uM in presence of ATP relative to control; values are per cent of control
[17] = Clearance in dog at 1 mg/kg, iv administered as 20% hydroxypropyl-beta-cyclodextrin formulation by LC-MS analysis; format: ADME, organism-based, Canis lupus familiaris; conditions: in vivo
[18] = target: cAMP-dependent protein kinase catalytic subunit PRKX (Homo sapiens) (UniProt P51817); assay: Inhibition of PrKX (unknown origin) at 1 uM in presence of ATP relative to control; values are per cent of control
C32 = assay: Inhibition of cell proliferation in human C32 cells upto 10 umol/L incubated for 72 hrs by DAPI staining based analysis; format: functional; conditions: dose <= 10.0 µmol/L
[19] = target: CDK7/Cyclin H/MNAT1 (Homo sapiens) (UniProt P51946+P50613+P51948); assay: Inhibition of CDK7/cyclinH/MAT1 (unknown origin) at 1 uM in presence of ATP relative to control; values are per cent of control
[20] = target: Homeodomain-interacting protein kinase 3 (Homo sapiens) (UniProt Q9H422); assay: Inhibition of HIPK3 (unknown origin) at 1 uM in presence of ATP relative to control; values are per cent of control
[21] = target: NUAK family SNF1-like kinase 1 (Homo sapiens) (UniProt O60285); assay: Inhibition of ARK5 (unknown origin) at 1 uM in presence of ATP relative to control; values are per cent of control

Receptor tyrosine-protein kinase erbB-4 (Homo sapiens), sequence (Q15303 whole entry): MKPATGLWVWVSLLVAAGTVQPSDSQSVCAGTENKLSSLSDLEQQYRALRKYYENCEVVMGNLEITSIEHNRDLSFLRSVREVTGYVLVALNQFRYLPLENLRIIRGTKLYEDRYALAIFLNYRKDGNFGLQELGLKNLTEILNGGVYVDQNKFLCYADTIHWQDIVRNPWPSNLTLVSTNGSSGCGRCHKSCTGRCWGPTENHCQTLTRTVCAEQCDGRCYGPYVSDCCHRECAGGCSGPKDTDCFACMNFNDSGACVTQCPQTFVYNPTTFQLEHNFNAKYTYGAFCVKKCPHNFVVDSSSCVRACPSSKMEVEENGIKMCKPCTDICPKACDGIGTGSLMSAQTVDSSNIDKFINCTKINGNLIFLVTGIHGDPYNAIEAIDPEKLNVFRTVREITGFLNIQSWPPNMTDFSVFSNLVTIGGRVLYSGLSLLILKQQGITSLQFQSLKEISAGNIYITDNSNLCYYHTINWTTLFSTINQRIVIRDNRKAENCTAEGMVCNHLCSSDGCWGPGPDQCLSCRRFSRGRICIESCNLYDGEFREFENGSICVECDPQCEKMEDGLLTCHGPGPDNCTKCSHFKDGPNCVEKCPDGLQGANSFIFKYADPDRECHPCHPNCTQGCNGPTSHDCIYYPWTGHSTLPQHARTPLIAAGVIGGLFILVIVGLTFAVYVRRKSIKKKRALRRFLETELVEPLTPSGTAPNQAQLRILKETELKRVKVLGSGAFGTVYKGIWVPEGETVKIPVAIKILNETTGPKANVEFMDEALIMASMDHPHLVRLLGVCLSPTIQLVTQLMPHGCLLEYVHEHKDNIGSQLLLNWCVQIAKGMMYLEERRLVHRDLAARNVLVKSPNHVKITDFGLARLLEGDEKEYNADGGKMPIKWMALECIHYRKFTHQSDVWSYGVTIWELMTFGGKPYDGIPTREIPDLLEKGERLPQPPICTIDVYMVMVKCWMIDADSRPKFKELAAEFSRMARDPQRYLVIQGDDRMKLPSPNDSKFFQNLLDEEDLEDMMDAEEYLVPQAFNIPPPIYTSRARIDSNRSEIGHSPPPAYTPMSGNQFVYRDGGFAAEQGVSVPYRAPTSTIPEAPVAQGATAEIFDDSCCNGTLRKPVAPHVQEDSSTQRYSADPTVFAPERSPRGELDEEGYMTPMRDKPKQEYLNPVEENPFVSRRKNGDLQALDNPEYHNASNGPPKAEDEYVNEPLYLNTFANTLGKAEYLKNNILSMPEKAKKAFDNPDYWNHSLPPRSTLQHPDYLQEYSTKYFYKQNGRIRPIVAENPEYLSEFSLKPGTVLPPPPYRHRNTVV
Dual specificity protein kinase CLK3 (Homo sapiens), sequence (P49761 whole entry, looked up): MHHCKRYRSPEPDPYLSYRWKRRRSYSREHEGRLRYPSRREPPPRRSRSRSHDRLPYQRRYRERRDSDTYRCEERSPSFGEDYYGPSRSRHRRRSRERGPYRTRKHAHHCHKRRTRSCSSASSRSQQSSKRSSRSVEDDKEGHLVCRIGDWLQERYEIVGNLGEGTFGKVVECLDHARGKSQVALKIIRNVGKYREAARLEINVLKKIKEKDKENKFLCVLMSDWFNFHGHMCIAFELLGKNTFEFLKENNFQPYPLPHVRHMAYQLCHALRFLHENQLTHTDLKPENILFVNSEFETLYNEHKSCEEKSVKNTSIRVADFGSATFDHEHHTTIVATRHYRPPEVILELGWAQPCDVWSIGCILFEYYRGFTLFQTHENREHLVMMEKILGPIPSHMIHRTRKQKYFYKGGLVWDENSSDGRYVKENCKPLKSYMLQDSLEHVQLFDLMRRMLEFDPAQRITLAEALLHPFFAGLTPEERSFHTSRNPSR
Serine/threonine-protein kinase MARK2 (Homo sapiens), sequence (Q7KZI7 whole entry): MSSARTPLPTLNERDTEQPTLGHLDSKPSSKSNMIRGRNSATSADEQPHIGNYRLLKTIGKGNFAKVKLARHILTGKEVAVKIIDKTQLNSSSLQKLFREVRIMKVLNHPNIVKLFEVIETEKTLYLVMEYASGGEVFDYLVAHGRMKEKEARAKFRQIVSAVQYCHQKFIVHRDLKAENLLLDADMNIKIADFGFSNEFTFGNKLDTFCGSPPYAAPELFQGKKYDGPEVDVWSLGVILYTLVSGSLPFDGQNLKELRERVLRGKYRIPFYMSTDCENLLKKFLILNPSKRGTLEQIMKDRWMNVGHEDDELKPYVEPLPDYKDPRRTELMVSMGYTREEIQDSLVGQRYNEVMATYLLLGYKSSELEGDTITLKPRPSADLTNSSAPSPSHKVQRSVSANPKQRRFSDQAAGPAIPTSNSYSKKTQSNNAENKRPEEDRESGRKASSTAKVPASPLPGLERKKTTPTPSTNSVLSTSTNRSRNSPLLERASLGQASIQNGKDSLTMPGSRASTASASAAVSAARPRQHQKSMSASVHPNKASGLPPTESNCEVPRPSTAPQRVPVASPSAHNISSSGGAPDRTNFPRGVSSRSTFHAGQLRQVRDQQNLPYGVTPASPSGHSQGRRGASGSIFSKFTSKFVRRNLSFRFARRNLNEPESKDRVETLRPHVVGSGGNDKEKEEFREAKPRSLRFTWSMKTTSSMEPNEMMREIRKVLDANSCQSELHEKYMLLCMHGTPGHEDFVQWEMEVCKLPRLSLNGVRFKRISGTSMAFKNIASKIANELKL
Serine/threonine-protein kinase WNK3 (Homo sapiens), sequence (Q9BYP7 whole entry): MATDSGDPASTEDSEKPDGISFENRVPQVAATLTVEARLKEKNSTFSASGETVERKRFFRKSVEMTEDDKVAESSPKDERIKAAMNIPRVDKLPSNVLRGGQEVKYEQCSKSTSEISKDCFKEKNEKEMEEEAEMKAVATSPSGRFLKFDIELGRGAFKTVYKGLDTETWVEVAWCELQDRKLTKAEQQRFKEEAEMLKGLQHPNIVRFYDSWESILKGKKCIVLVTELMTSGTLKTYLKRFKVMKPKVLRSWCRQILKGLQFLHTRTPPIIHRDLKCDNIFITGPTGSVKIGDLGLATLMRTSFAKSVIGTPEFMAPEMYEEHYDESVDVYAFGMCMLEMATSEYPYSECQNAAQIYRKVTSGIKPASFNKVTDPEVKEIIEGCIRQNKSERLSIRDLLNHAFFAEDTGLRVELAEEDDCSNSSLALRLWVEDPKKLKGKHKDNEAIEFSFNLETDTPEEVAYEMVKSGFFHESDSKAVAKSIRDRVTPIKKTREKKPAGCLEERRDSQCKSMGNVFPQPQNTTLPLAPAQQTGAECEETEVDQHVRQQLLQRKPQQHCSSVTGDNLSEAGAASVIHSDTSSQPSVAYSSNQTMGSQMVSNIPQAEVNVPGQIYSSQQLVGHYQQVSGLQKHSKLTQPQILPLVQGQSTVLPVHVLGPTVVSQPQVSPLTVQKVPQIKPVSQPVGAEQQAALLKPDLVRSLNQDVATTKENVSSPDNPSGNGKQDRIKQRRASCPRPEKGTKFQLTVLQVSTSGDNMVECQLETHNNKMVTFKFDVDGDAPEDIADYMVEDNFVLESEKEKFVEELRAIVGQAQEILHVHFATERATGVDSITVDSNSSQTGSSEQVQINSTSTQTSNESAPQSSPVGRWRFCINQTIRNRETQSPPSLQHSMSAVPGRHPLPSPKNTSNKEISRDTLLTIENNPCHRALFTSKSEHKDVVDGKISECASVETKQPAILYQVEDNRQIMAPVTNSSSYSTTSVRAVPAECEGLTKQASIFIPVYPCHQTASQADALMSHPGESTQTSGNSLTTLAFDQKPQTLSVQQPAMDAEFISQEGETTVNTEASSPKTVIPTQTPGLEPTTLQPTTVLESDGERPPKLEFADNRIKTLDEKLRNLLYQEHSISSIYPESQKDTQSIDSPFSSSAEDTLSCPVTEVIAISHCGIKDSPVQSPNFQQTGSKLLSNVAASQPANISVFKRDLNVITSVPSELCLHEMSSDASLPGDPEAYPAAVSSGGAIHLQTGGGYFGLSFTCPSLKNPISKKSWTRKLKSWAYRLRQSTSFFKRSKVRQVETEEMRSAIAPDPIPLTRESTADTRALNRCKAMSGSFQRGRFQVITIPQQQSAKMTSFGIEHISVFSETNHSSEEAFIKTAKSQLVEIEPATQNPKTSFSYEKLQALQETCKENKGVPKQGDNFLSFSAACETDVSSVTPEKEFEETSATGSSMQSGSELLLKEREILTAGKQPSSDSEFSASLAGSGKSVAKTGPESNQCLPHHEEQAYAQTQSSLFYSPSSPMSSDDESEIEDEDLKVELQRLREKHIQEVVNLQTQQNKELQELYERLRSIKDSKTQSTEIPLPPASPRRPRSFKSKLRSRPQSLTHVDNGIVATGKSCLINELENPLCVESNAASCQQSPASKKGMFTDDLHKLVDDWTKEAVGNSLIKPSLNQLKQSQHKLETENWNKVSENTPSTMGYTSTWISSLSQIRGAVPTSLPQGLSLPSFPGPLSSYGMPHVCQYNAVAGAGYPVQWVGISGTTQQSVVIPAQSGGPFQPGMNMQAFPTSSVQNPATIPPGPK
Protein kinase C iota type (Homo sapiens), sequence (P41743 whole entry): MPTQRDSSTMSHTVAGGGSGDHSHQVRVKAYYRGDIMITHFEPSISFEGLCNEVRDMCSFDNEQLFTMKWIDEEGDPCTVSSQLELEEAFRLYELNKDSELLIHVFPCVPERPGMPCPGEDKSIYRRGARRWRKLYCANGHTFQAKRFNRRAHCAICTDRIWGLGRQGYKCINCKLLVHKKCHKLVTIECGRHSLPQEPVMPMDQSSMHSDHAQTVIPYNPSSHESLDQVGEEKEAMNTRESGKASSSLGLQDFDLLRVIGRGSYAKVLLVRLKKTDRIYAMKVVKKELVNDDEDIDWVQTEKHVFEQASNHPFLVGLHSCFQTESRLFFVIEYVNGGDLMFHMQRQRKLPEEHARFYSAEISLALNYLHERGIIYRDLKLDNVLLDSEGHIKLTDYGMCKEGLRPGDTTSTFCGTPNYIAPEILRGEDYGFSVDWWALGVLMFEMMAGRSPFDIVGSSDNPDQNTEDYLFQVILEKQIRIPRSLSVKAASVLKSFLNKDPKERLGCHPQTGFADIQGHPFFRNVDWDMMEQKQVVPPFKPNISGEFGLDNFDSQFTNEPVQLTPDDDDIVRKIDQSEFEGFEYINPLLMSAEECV

- concentration at 34 h [1]: 1.86 ng/mL
- residual activity [2]: 100%
- residual activity [3]: 100%
- residual activity [4]: 104%
- residual activity [5]: 107%
- residual activity [6]: 120%
- residual activity [7]: 102%
- residual activity [8]: 116%
- residual activity [9]: 128%
- residual activity [10]: 104%
- residual activity [11]: 91.5%
- bioavailability [12]: 42%
- residual activity [13]: 110%
- residual activity [14]: 122%
- residual activity [15]: 109%
- residual activity [16]: 100%
- clearance [17]: 12.8 mL/min/kg
- residual activity [18]: 118%
- residual activity [19]: 108%
- residual activity [20]: 105%
- residual activity [21]: 98%
SMILES: C[C@@H]1CCc2ncc(F)cc2[C@H]2CCCN2c2ccn3ncc(c3n2)C(=O)N1 [SELITRECTINIB]
- inhibition (CGTH-W-1): inactive
- inhibition (COR-L105): inactive
- inhibition (BXPC-3): inactive
- inhibition (TCC-SUP): inactive
- inhibition (NCI-H441): inactive
- inhibition (MV4-11): inactive
- inhibition (TF-1): inactive
- inhibition (DBTRG-05MG): inactive
- inhibition (C32): inactive
